The structures appear in SMILES notation.

Chain of Recombinant human Cbl-b (aa 36-427) (Q13191 36-427): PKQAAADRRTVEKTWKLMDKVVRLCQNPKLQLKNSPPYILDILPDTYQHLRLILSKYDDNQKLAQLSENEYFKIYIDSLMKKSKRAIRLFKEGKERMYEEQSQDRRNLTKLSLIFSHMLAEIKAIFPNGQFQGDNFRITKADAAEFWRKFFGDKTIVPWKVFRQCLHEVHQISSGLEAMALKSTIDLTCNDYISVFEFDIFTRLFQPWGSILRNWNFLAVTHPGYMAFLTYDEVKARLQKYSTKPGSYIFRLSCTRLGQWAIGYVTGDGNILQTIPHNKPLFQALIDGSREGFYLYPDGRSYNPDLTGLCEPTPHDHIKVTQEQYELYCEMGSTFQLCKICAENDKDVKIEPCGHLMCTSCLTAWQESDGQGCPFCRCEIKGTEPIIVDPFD

This experiment addresses Recombinant human Cbl-b (aa 36-427) (Homo sapiens (Human), UniProt Q13191). Kind of experiment: Cbl-b Biochemical Assay (TR-FRET). As to conditions: read-out: TR-FRET hCbl-b IC50. An outline of the steps: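 Two-step TR-FRET: 6 nM biotinylated Cbl-b preincubated 30-60 min with compound, then 60 min at RT with 1-2.5 nM Src-Zap70 and 0.5 mM ATP in HEPES pH 7.0 buffer, 1% DMSO. Stopped with 5 mM EDTA plus 100 nM UBE2D2-Ub-FL-BODIPY and 1 nM streptavidin-Tb, 60 min; 520 nm signal; IC50 from 4-parameter fit.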
(TR-FRET usually uses a lanthanide donor and a delayed reading to cut background.)
By IC50 is commonly meant the concentration needed to halve the response being measured. Turning to `CCNc1cc(-c2c(-c3nncn3C)cnn2C)cc(N2Cc3c(cc(COC(C)C)cc3C(F)(F)F)C2=O)n1` [ACW-1, 2-(6-(Ethylamino)-4-(1-methyl-4-(4-methyl-4H-1,2,4-triazol-3-yl)-1H-pyrazol-5-yl)pyridin-2-yl)-6-(isopropoxymethyl)-4-(trifluoromethyl)isoindolin-1-one], the IC50 is no more than 0.2 µM.
As for `CCNc1cc(-c2ccccc2-c2nncn2C)cc(N2Cc3c(cc(CO)cc3C(F)(F)F)C2=O)n1` [AD-3, 2-(6-(Ethylamino)-4-(2-(4-methyl-4H-1,2,4-triazol-3-yl)phenyl)pyridin-2-yl)-6-(hydroxymethyl)-4-(trifluoromethyl)isoindolin-1-one], the IC50 was no more than 0.2 µM.
For `CN(C)c1cc(-c2ccccc2-c2nncn2C)cc(N2Cc3c(cc(CO)cc3C(F)(F)F)C2=O)n1` [AD-4, 2-(6-(dimethylamino)-4-(2-(4-methyl-4H-1,2,4-triazol-3-yl)phenyl)pyridin-2-yl)-6-(hydroxymethyl)-4-(trifluoromethyl)isoindolin-1-one] the value was 0.2 to 1 µM; for `CCNc1cc(-c2ccccc2-c2nncn2C)cc(N2Cc3c(cc(CN4CCC[C@@H](C)C4)cc3C(F)(F)F)C2=O)n1` [AE-2, (R)-2-(6-(Ethylamino)-4-(2-(4-methyl-4H-1,2,4-triazol-3-yl)phenyl)pyridin-2-yl)-6-((3-methylpiperidin-1-yl)methyl)-4-(trifluoromethyl)isoindolin-1-one], no more than 0.2 µM.
With `CCNc1cc(-c2ccccc2-c2nncn2C)cc(N2Cc3c(cc(CN4CCC[C@H](C)C4)cc3C(F)(F)F)C2=O)n1` [AF-1, (S)-2-(6-(Ethylamino)-4-(2-(4-methyl-4H-1,2,4-triazol-3-yl)phenyl)pyridine-2-yl)6-((3-methylpiperidin-1-yl)methyl)-4-(trifluoromethyl)isoindolin-1-one], the IC50 was no more than 0.2 µM.
To `CCNc1cc(-c2ccccc2-c2nncn2C)cc(N2Cc3c(cc(CN4CC(F)C4)cc3C(F)(F)F)C2=O)n1` [AG-1, 2-(6-(Ethylamino)-4-(2-(4-methyl-4H-1,2,4-triazol-3-yl)phenyl)pyridin-2-yl)-6-((3-fluoroazetidin-1-yl)methyl)-4-(trifluoromethyl)isoindolin-1-one] belongs no more than 0.2 µM; to `CCNc1cc(-c2ccccc2-c2nncn2C)cc(N2Cc3c(cc(CN4CCC5(CC4)CC5)cc3C(F)(F)F)C2=O)n1` [AI-2, 6-((6-Azaspiro[2.5]octan-6-yl)methyl)-2-(6-(ethylamino)-4-(2-(4-methyl-4H-1,2,4-triazol-3-yl)phenyl)pyridin-2-yl)-4-(trifluoromethyl)isoindolin-1-one], no more than 0.2 µM; to `CCNc1cc(-c2ccccc2-c2nncn2C)cc(N2Cc3c(cc(CN4CC[C@H](F)C4)cc3C(F)(F)F)C2=O)n1` [AJ-1, (S)-2-(6-(Ethylamino)-4-(2-(4-methyl-4H-1,2,4-triazol-3-yl)phenyl)pyridin-2-yl)-6-((3-fluoropyrrolidin-1-yl)methyl)-4-(trifluoromethyl)isoindolin-1-one], no more than 0.2 µM.
Consider `CCNc1cc(-c2ccccc2-c2nncn2C)cc(N2Cc3c(cc(CN4CCC(F)(F)C(C)C4)cc3C(F)(F)F)C2=O)n1` (stereo not drawn) [AK-2, 6-((4,4-Difluoro-3-methylpiperidin-1-yl)methyl)-2-(6-(ethylamino)-4-(2-(4-methyl-4H-1,2,4-triazol-3-yl)phenyl)pyridin-2-yl)-4-(trifluoromethyl)isoindolin-1-one], for which the IC50 was no more than 0.2 µM.
For `CCNc1cc(-c2ccccc2-c2nncn2C)cc(N2Cc3c(cc(CN4CCO[C@@H](C)C4)cc3C(F)(F)F)C2=O)n1` [AL-1, (S)-2-(6-(Ethylamino)-4-(2-(4-methyl-4H-1,2,4-triazol-3-yl)phenyl)pyridin-2-yl)-6-((2-methylmorpholino)methyl)-4-(trifluoromethyl)isoindolin-1-one] the value was no more than 0.2 µM; for `CCNc1cc(-c2ccccc2-c2nncn2C)cc(N2Cc3c(cc(CN4CCOCC4)cc3C(F)(F)F)C2=O)n1` [AM-2, 2-(6-(Ethylamino)-4-(2-(4-methyl-4H-1,2,4-triazol-3-yl)phenyl)pyridin-2-yl)-6-(morpholinomethyl)-4-(trifluoromethyl)isoindolin-1-one], no more than 0.2 µM.
For `CCNc1cc(-c2ccccc2-c2nncn2C)cc(N2Cc3c(cc(CN4CCO[C@H](C)C4)cc3C(F)(F)F)C2=O)n1` [AN-1, (R)-2-(6-(Ethylamino)-4-(2-(4-methyl-4H-1,2,4-triazol-3-yl)phenyl)pyridin-2-yl)-6-((2-methylmorpholino)methyl)-4-(trifluoromethyl)isoindolin-1-one] the value was no more than 0.2 µM; for `CCNc1cc(-c2ccccc2-c2nncn2C)cc(N2Cc3c(cc(CN[C@@H]4CCC[C@H]4O)cc3C(F)(F)F)C2=O)n1` [AO-1, 2-(6-(Ethylamino)-4-(2-(4-methyl-4H-1,2,4-triazol-3-yl)phenyl)pyridin-2-yl)-6-((((1R,2R)-2-hydroxycyclopentyl)amino)methyl)-4-(trifluoromethyl)isoindolin-1-one], no more than 0.2 µM; for `CCNc1cc(-c2ccccc2-c2nncn2C)cc(N2Cc3c(cc(CN[C@H]4CCC[C@@H]4O)cc3C(F)(F)F)C2=O)n1` [AP-1, 2-(6-(Ethylamino)-4-(2-(4-methyl-4H-1,2,4-triazol-3-yl)phenyl)pyridin-2-yl)-6-((((1S,2S)-2-hydroxycyclopentyl)amino)methyl)-4-(trifluoromethyl)isoindolin-1-one], no more than 0.2 µM.
Take `CCNc1cc(-c2ccccc2-c2nncn2C)cc(N2Cc3c(cc(CN[C@@H]4CCC[C@@H]4O)cc3C(F)(F)F)C2=O)n1` [AQ-1, 2-(6-(Ethylamino)-4-(2-(4-methyl-4H-1,2,4-triazol-3-yl)phenyl)pyridin-2-yl)-6-((((1R,2S)-2-hydroxycyclopentyl)amino)methyl)-4-(trifluoromethyl)isoindolin-1-one]: the IC50 is no more than 0.2 µM.
Consider `CCNc1cc(-c2ccccc2-c2nncn2C)cc(N2Cc3c(cc(CN[C@H]4CCC[C@H]4O)cc3C(F)(F)F)C2=O)n1` [AR-1, 2-(6-(Ethylamino)-4-(2-(4-methyl-4H-1,2,4-triazol-3-yl)phenyl)pyridin-2-yl)-6-((((1S,2R)-2-hydroxycyclopentyl)amino)methyl)-4-(trifluoromethyl)isoindolin-1-one], for which the IC50 was no more than 0.2 µM.
To `CCNc1cc(-c2ccccc2-c2nncn2C)cc(N2Cc3c(cc(COC)cc3C(F)(F)F)C2=O)n1` [AS-2, 2-(6-(Ethylamino)-4-(2-(4-methyl-4H-1,2,4-triazol-3-yl)phenyl)pyridin-2-yl)-6-(methoxymethyl)-4-(trifluoromethyl)isoindolin-1-one] belongs no more than 0.2 µM; to `COc1ccc([C@@H](C)Cc2nncn2C)cc1N1Cc2c(cc(CN3CCCC3)cc2C(F)(F)F)C1=O` [Example F-9, (S)-2-(2-Methoxy-5-(1-(4-methyl-4H-1,2,4-triazol-3-yl)propan-2-yl)phenyl)-6-(pyrrolidin-1-ylmethyl)-4-(trifluoromethyl)isoindolin-1-one], 1 to 10 µM.
To `COc1ccc(-c2ccccc2-c2nncn2C)cc1N1Cc2c(cccc2C(F)(F)F)C1=O` [Example G-4, 2-(4-Methoxy-2′-(4-methyl-4H-1,2,4-triazol-3-yl)-[1,1′-biphenyl]-3-yl)-4-(trifluoromethyl)isoindolin-1-one] belongs 10 to 50 µM; to `COC(=O)c1cc(-c2ccccc2-c2nncn2C)cc(N2Cc3c(cccc3C(F)(F)F)C2=O)c1` [Example H-5, Methyl 2′-(4-methyl-4H-1,2,4-triazol-3-yl)-5-(1-oxo-4-(trifluoromethyl)isoindolin-2-yl)-[1,1′-biphenyl]-3-carboxylate], 10 to 50 µM.
For `Cn1cnnc1-c1ccccc1-c1cc(C(=O)O)cc(N2Cc3c(cccc3C(F)(F)F)C2=O)c1` [Example I-1, 2′-(4-Methyl-4H-1,2,4-triazol-3-yl)-5-(1-oxo-4-(trifluoromethyl)isoindolin-2-yl)-[1,1′-biphenyl]-3-carboxylic acid] the value was 10 to 50 µM; for `Cn1cnnc1-c1ccccc1-c1cc(N2Cc3c(cccc3C(F)(F)F)C2=O)nc(C(F)(F)F)c1` [Example J-4, 2-(4-(2-(4-Methyl-4H-1,2,4-triazol-3-yl)phenyl)-6-(trifluoromethyl)pyridin-2-yl)-4-(trifluoromethyl)isoindolin-1-one], 10 to 50 µM.
For `Cn1cnnc1-c1ccccc1-c1cc(N2Cc3c(cccc3C(F)(F)F)C2=O)cc(C(F)(F)F)c1` [Example K-3, 2-(2′-(4-Methyl-4H-1,2,4-triazol-3-yl)-5-(trifluoromethyl)-[1,1′-biphenyl]-3-yl)-4-(trifluoromethyl)isoindolin-1-one], the IC50 was 1 to 10 µM.
For `Cn1cnnc1-c1ccccc1-c1cc(N2Cc3c(cccc3C(F)(F)F)C2=O)nc2[nH]ccc12` [Example L-5, 2-(4-(2-(4-Methyl-4H-1,2,4-triazol-3-yl)phenyl)-1H-pyrrolo[2,3-b]pyridin-6-yl)-4-(trifluoromethyl)isoindolin-1-one], the IC50 was in the range of 10 to 50 µM.
Regarding `CCn1ccc2c(-c3ccccc3-c3nncn3C)cc(N3Cc4c(cccc4C(F)(F)F)C3=O)nc21` [Example M-2, 2-(1-Ethyl-4-(2-(4-methyl-4H-1,2,4-triazol-3-yl)phenyl)-1H-pyrrolo[2,3-b]pyridin-6-yl)-4-(trifluoromethyl)isoindolin-1-one], the IC50 lay in the range of 1 to 10 µM.
For the molecule `Cn1cnnc1-c1ccccc1-c1cc(CO)cc(N2Cc3c(cccc3C(F)(F)F)C2=O)c1` [Example N-5, 2-(5-(Hydroxymethyl)-2′-(4-methyl-4H-1,2,4-triazol-3-yl)-[1,1′-biphenyl]-3-yl)-4-(trifluoromethyl)isoindolin-1-one], the IC50 was 1 to 10 µM.
For the molecule `CNC(=O)c1cc(-c2ccccc2-c2nncn2C)cc(N2Cc3c(cccc3C(F)(F)F)C2=O)c1` [Example O-3, N-Methyl-2′-(4-methyl-4H-1,2,4-triazol-3-yl)-5-(1-oxo-4-(trifluoromethyl)isoindolin-2-yl)-[1,1′-biphenyl]-3-carboxamide], the 50% inhibitory concentration (IC50) fell in the range of 10 to 50 µM.

The values above are taken from patent publication US12325697B2 (Nimbus Clio, Inc., priority 2021, dated 2025).
